Values of other authors as cited in patent US20050032677A1, “Fungicidal and/or bactericidal composition, production process thereof and sterilization method using the composition” (priority 2001, published 2005).
Read-outs that look alike come from different tables or passages of the source. *1 amine or outer side, *2 acyl side, *3 side chain or, on linkers, in order; H or OH if unused. Where a SMILES comes first, the peptide text is derived from it. Bridges are numbered along the chain shown (N, C = ends). [ ]: non-standard residue; d: D form. X1 = CC(C)CCCCCCCCC[C@H](CC(=O)[*:1])O[*:2]

Key:
erythrocyte = conditions: relative to mixing iturin and surfactin
erythrocyte membrane = conditions: relative to mixing iturin and surfactin in the latter ratio (2:1)
mouse = conditions: hypodermic injection to a mouse

Compound	critical micelle concentration (CMC) (aqueous solution)	critical micelle concentration (CMC) (in a 0.1M sodium hydrogencarbonate solution)	hemolysis activity relative to iturin and surfactin mixture (erythrocyte)	amount bound to the erythrocyte membrane relative to iturin:surfactin 2:1 (erythrocyte membrane)	LD50 (mouse)
CC(C)CCCCCCCCC[C@@H]1CC(=O)N[C@@H](CCC(=O)O)C(=O)N[C@@H](CC(C)C)C(=O)N[C@H](CC(C)C)C(=O)N[C@@H](C(C)C)C(=O)N[C@@H](CC(=O)O)C(=O)N[C@H](CC(C)C)C(=O)N[C@@H](CC(C)C)C(=O)O1 [surfactin] (EL[dL]VD[dL]L; linker N-C via X1)	250 µM	10 µM			
iturin	40 µM		about one sixth	at most a half	157 mg/kg
